Results as given in patent US20070042507A1, “Composite nanoparticles” (priority 2003, published 2007).
Values joined by “and” are separate entries in the source; they are usually repeats but may differ in a detail not shown here. Identical values can stand only once. Like-named read-outs stand apart in the source and are kept apart here.

How the values were obtained:
physchem [1] = assay: physchem
physchem [2] = assay: physchem; remark: listed apart in the source
[3] = n-octanol/water logD by prior art shake-flask method
[4] = cited from earlier work; for LogD value from literature: n-octanol/water; for logD, Literature Value: pH = 7.4, AstraZeneca in-house data
[5] = n-octanol/water logD with stock solution of n-octanol-charged nanoparticles (SC-CO2 delivery, example 10); conditions: pH 7.4
Protocol: 30 μL n-octanol was then added into the holder 6 by the use of a micro-pipettor. The autoclave vessel and the sample holder (30 ml in total volume) were charged and flushed with CO2 by opening and closing the valves between the two compartments and external outlets for a few times before the vessels were brought up to the desired pressure (150 bar). The temperature of the autoclave and sample holder was maintained at 40° C., to allow the dispersion of the small quantity of n-octanol into the porous particles. After 2 hours, the high pressure of the system was released to atmosphere very slowly.
An appropriate amount of n-octanol was added to provide a thin n-octanol layer covering the water phase (density of n-octanol is lower than water). The funnel was shaken for 5 to 10 minutes to allow mixing of the n-octanol with water. The funnel was then covered by aluminium foil to protect the solvent mixture from light degradation and evaporation. The funnel was placed in an upright position for 3 days to allow separation of the two phases. The n-octanol phase saturated with water was then collected.
The particles containing nanocomposite were dispersed into 5 mL of this saturated buffer solution to obtain a homogeneous stock-solution with a concentration of 0.0038 mL n-octanol per mL of solution. Partition coefficient measurements were carried out as described below, using such a stock solution prepared in the same way.
After shaking the mixed system for half an hour, the magnetic nanocomposites were precipitated in a few minutes by an external magnet placed near the bottom of the reactor-tube. UV-visible spectrophotometry was used to determine the absorption of analyte at the aqueous phase both before and after partitioning.
For the partition coefficient determination, stock solutions were prepared with a suitable n-octanol/nanoparticle ratio. […]
UV-visible spectrometry was used to quantitatively determine the drug concentration in aqueous phase before and after partitioning. […]

[6] = n-octanol/water, pH 7.4, LogD value measured (Prior art method) (pH = 7.4), single measurements, water:n-octanol 100:1
[7] = n-octanol/water, pH 7.4, Mean logD value measured (Prior art method) (ph = 7.4), mean of five, water:n-octanol 100:1
[8] = pH 7.4, LogD value measured by present invention (pH = 7.4), single measurements, water:n-octanol 100:1
[9] = pH 7.4, Mean logD value measured by present invention (pH = 7.4), mean of five, water:n-octanol 100:1
[10] = single measurements, water:n-octanol 100:1
[11] = pH 7.4, logD, Magnetic nano-composite method, water/n-octanol 100, average of at least five, confidence level 95%
[12] = pH 7.4, LogD value measured (Prior art method) (pH = 7.4), single measurements, water:n-octanol 100:1
[13] = pH 7.4, Mean logD value measured (Prior art method) (ph = 7.4), mean of five, water:n-octanol 100:1
[14] = n-octanol/water, pH 7.4, logD, Shake-Flask Method, water/n-octanol 100, average of at least five, confidence level 95%

| logD [3, 6] | logD [3, 7] | logD [8] | LogD value measured (Prior art method) (pH = 7.4) [3, 10] | logD [11] | logD [5] | logD [3, 14] | SMILES | logD (physchem [1]; pH 7.4, LogD value measured (Prior art method) (pH = 7.4)) | logD (physchem [1]; pH 7.4, logD, Shake-Flask Method) | logD (physchem [2]; pH 7.4, LogD value measured by present invention (pH = 7.4)) | logD (physchem [2]; pH 7.4, logD, Magnetic nano-composite method) | logD [9] | LogD value measured by present invention (pH = 7.4) (single measurements, water:n-octanol 100:1, listed as 4-Nitroansiole) | LogD value from literature [4] | logD, Literature Value [4] | logD [3, 12] | logD [3, 13] | logD ([3]; pH 7.4, logD, Shake-Flask Method, water/n-octanol 100, average of at least five, confidence level 95%) | LogD value measured by present invention (pH = 7.4) [10] |
| --- | --- | --- | --- | --- | --- | --- | --- | --- | --- | --- | --- | --- | --- | --- | --- | --- | --- | --- | --- |
|  |  | 0.0639 |  |  |  |  | NC(=O)c1ccccc1 [Benzamide] |  |  |  |  |  |  |  |  |  |  |  |  |
| 3.08 | 3.076 ± 0.0047 | 3.14 | 3.074 and 3.083 | 3.164 ± 0.011 | 3.17 ± 0.448 | 3.076 ± 0.005 | CN(C)CCCN1c2ccccc2Sc2ccc(Cl)cc21 [Chlorpromazine] |  |  |  |  | 3.164 ± 0.0111 |  | 3.200 | 3.200 |  |  |  | 3.179 and 3.186 and 3.124 |
| 2.12 | 2.116 ± 0.0039 | 2.19 | 2.115 and 2.113 and 2.121 and 2.114 | 2.186 ± 0.004 | 2.08 ± 0.073 | 2.116 ± 0.004 | c1ccc2ncccc2c1 [Quinoline] |  |  |  |  | 2.186 ± 0.0044 |  | 2.020 | 2.020 |  |  |  |  |

The next lines start with the molecule.

| SMILES | logD [3, 6] | logD [3, 7] | logD [8] | LogD value measured (Prior art method) (pH = 7.4) [3, 10] | logD [11] | logD [5] | logD [3, 14] | logD (physchem [1]; pH 7.4, LogD value measured (Prior art method) (pH = 7.4)) | logD (physchem [1]; pH 7.4, logD, Shake-Flask Method) | logD (physchem [2]; pH 7.4, LogD value measured by present invention (pH = 7.4)) | logD (physchem [2]; pH 7.4, logD, Magnetic nano-composite method) | logD [9] | LogD value measured by present invention (pH = 7.4) (single measurements, water:n-octanol 100:1, listed as 4-Nitroansiole) | LogD value from literature [4] | logD, Literature Value [4] | logD [3, 12] | logD [3, 13] | logD ([3]; pH 7.4, logD, Shake-Flask Method, water/n-octanol 100, average of at least five, confidence level 95%) | LogD value measured by present invention (pH = 7.4) [10] |
| --- | --- | --- | --- | --- | --- | --- | --- | --- | --- | --- | --- | --- | --- | --- | --- | --- | --- | --- | --- |
| COc1ccc([N+](=O)[O-])cc1 [4-Nitroanisole] | 2.01 | 2.01 ± 0.0077 | 2.01 |  |  |  |  | 2.02 | 2.01 ± 0.008 | 2.01 | 2.013 ± 0.012 | 2.013 ± 0.012 | 2.023 and 2.002 |  |  |  |  |  |  |
| O=[N+]([O-])c1ccc(CO)cc1 [4-Nitrobenzyl alcohol] | 1.25 |  | 1.27 | 1.264 and 1.244 and 1.256 | 1.27 ± 0.038 |  |  |  |  |  |  | 1.27 ± 0.0381 |  | 1.260 | 1.260 |  |  |  |  |
| O=[N+]([O-])c1ccc(O)cc1 [4-Nitrophenol] |  |  | 1.81 | 1.779 and 1.811 and 1.780 | 1.49 ± 0.021 | 1.45 ± 0.026 |  |  |  |  |  | 1.807 ± 0.0052 |  | 1.480 | 1.480 | 1.77 | 1.78 ± 0.019 | 1.486 ± 0.009 |  |
| Nc1ccccc1 [Aniline] |  |  | 0.963 | 0.945 and 0.929 and 0.926 and 0.932 |  |  |  |  |  |  |  | 0.973 ± 0.0303 |  | 0.900 |  | 0.936 | 0.934 ± 0.0094 |  | 0.990 and 0.935 and 0.989 |
